Counter-ions that a name gives are not always drawn.
Legend:
[1] = test system: human breast cancer cell line (MDA-MB-468); assay: Growth inhibition of MDA-MB-468 cells, sulforhodamine B method; format: cell-based; settings: 120 h, 5 days with test compound
Procedure: Growth inhibition of a human breast cancer cell line (MDA-MB-468) was determined by the sulforhodamine B method based on the method of Skehan P. et al. (J Natl Cancer Inst. 1990 Jul. 4; 82(13): 1107-12). In the study, MDA-MB-468 cells were seeded on DMEM medium containing 10% fetal bovine serum in a 96-well microplate. After 24-h incubation at 37° C. in the presence of 5% carbon dioxide, the test compound was added and the cells were incubated for another 5 days. After incubation, a trichloroacetic acid solution was added to yield the final concentration of 10% and the cells were left to stand at 4° C. for 1 hour to fix. Then, the cells were washed with water to remove the medium and trichloroacetic acid and dried in the air. The dried cells were stored at 4° C. until they were stained with sulforhodamine B. To each well, 1% acetic acid solution containing 0.4% sulforhodamine B was added and left to stand for 20 to 30 minutes at room temperature. After discarding the supernatant, each well was washed with 1% acetic acid solution, and 10 mM Tris([…]) solution was added while stirring to elute the dye taken into the cells. Then, the optical density was determined at the measurement wavelength of 492 nm and the reference wavelength of 690 nm, and the difference was calculated. The cell growth activity in each well was defined as the value determined by subtracting the OD in the control well not containing cells (the difference in absorbance between 492 nm and 690 nm) from that in the test well.
(§1) The 50% inhibitory concentration (IC50 (nM)) of the test compound was determined by comparing the cell growth activity in the well containing the test compound with that of the control not containing the test compound.

[2] = test system: human prostate (carcinoma) cell line (DU 145); assay: Growth inhibition of DU 145 cells, WST-8 assay; format: cell-based; settings: 120 h, 5 days with test compound
Procedure: (§2) The growth inhibition on a bicalutamide resistant human prostate cancer cell line established from LNCaP.FGC (LNCaP-Bic) (Hobisch A, et al. Prostate. 2006; 66(4):413-20.) was determined by a WST-8 assay according to the method of Singh A K, et al. (Cancer Lett. 1996 Oct. 1; 107(1): 109-15.). In this method, LNCaP-Bic cells were seeded in RPMI 1640 medium containing 10% fetal bovine serum in a 96-well microplate and incubated at 37° C. for 24 hours in the presence of 5% carbon dioxide. Then, the test compound was added and the cells were incubated for another 5 days. After incubation, a 15-μL volume of WST-8 (2-(2-methoxy-4-nitrophenyl)-3-(4-nitrophenyl)-5-(2,4-[…])-2H-tetrazolium, monosodium salt) was added. After the incubation for the time, the color reaction was stopped by adding 15 μL of 1% SDS (sodium dodecyl sulfate) solution and the optical density was determined at the measurement wavelength of 450 nm and the reference wavelength of 630 nm, and the difference was calculated. The cell growth activity in each well was defined as the value determined by subtracting the OD in the control well not containing cells (the difference in absorbance between 450 nm and 630 nm) from that in the test well.
as §1
The growth inhibition on a human prostate (carcinoma) cell line (DU 145) (van Bokhoven A, et al. Prostate. 2003; 57(3):205-25.) was also determined by the above method.

[3] = test system: human prostate (adenocarcinoma) cell line (VcaP); assay: Growth inhibition of VcaP cells, WST-8 assay; format: cell-based; settings: 120 h, 5 days with test compound
Procedure: as §2, §1
The growth inhibition on a human prostate (adenocarcinoma) cell line (VcaP) (Korenchuk S, et al. In Vivo. 2001; 15(2):163-8.) was also determined by the above method.

[4] = test system: human prostate (carcinoma) cell line (LNCaP.FGC); assay: Growth inhibition of LNCaP.FGC cells, WST-8 assay; format: cell-based; settings: 120 h, 5 days with test compound
Procedure: as §2, §1
The growth inhibition on a human prostate (carcinoma) cell line (LNCaP.FGC) (van Bokhoven A, et al. Prostate. 2003; 57(3):205-25.) was also determined by the above method.

[5] = test system: bicalutamide resistant human prostate cancer cell line established from LNCaP.FGC (LNCaP-Bic); assay: Growth inhibition of LNCaP-Bic cells, WST-8 assay; format: cell-based; settings: 120 h, 5 days with test compound
Procedure: as §2, §1

[6] = test system: human prostate (adenocarcinoma) cell line (PC-3); assay: Growth inhibition of PC-3 cells, WST-8 assay; format: cell-based; settings: 120 h, 5 days with test compound
Procedure: as §2, §1
The growth inhibition on a human prostate (adenocarcinoma) cell line (PC-3) (van Bokhoven A, et al. Prostate. 2003; 57(3):205-25.) was also determined by the above method.

SMILES | IC50 [1] | melting point | also measured
Cc1ccc(COc2ccc(Oc3c(C)cc(/C=C/C(=O)N4CCCN(Cc5ccc(CCOc6ccc(C(C)C)cc6)cc5)CC4)cc3Cl)nc2)cc1 [Example 123, (E)-3-[3-Chloro-5-methyl-4-({5-[(4-methylbenzyl)oxy]pyridin-2-yl}oxy)phenyl]-1-[4-(4-{2-[4-(propan-2-yl)phenoxy]ethyl}benzyl)-1,4-diazepan-1-yl]prop-2-en-1-one] | < 10 nM | – | –
Cc1cc(/C=C/C(=O)N2CCN(Cc3ccc(CCOc4ccc(C#N)cc4)cc3)CC2)cc(Cl)c1Oc1ccc(OCc2ccc(C(F)(F)F)cc2)cn1 [Example 289, 4-{2-[4-({4-[(E)-3-{3-chloro-5-methyl-4-[(5-{[4-(trifluoromethyl)benzyl]oxy}pyridin-2-yl)oxy]phenyl}prop-2-enoyl]piperazin-1-yl}methyl)phenyl]ethoxy}benzonitrile] | < 10 nM | – | –
Cc1ccc(COc2ccc(Oc3c(C)cc(/C=C/C(=O)N4CCN(Cc5ccc(CCOc6ccc(N(C)C)cc6)cc5)CC4)cc3Cl)nc2)cc1 [Example 321, (E)-3-[3-chloro-5-methyl-4-({5-[(4-methylbenzyl)oxy]-pyridin-2-yl}oxy)phenyl]-1-[4-(4-{2-[4-(dimethylamino)phenoxy]ethyl}benzyl)piperazin-1-yl]prop-2-en-1-one] | < 10 nM | – | –
Cc1ccc(COc2ccc(Oc3c(C)cc(/C=C/C(=O)N4CCN(Cc5ccc(C)cc5)CC4)cc3Cl)nc2)cc1 [Example 359, (E)-3-[3-Chloro-5-methyl-4-({5-[(4-methylbenzyl)oxy]pyridin-2-yl}oxy)phenyl]-1-[4-(4-methylbenzyl)piperazin-1-yl]prop-2-en-1-one] | < 10 nM | – | –
C/C(=C\c1cc(C)c(Oc2ccc(OCc3ccc(C)cc3)cn2)c(Cl)c1)C(=O)N1CCN(Cc2ccc(CCOc3ccc(C)cc3)cc2)CC1.Cl [Example 411, (E)-3-[3-Chloro-5-methyl-4-({5-[(4-methylbenzyl)oxy]pyridin-2-yl}oxy)phenyl]-2-methyl-1-(4-{4-[2-(4-methylphenoxy)ethyl]benzyl}piperazin-1-yl)prop-2-en-1-one hydrochloride] | < 10 nM | 134.7 to 136.4 °C | –
Cc1cc(/C=C/C(=O)N2CCN(Cc3ccc(CCOc4ccc(F)cc4)cc3)CC2)cc(Cl)c1Oc1ccc(OCc2cccc(Cl)c2F)cn1.Cl [Example 485, (E)-3-[3-Chloro-4-({5-[(3-chloro-2-fluorobenzyl)oxy]pyridin-2-yl}oxy)-5-methylphenyl]-1-(4-{4-[2-(4-fluorophenoxy)ethyl]benzyl}piperazin-1-yl)prop-2-en-1-one hydrochloride] | < 10 nM | 228.9 to 229.4 °C | –
Cc1ccc(OCCc2ccc(CN3CCN(C(=O)/C=C/c4cc(C)c(Oc5ccc(OCc6cccc(F)c6F)cn5)c(Cl)c4)CC3)cc2)cc1 [Example 487, (E)-3-[3-Chloro-4-({5-[(2,3-difluorobenzyl)oxy]pyridin-2-yl}oxy)-5-methylphenyl]-1-(4-{4-[2-(4-methylphenoxy)ethyl]benzyl}piperazin-1-yl)prop-2-en-1-one hydrochloride] | < 10 nM | – | –
Cc1ccc(COc2ccc(Oc3c(C)cc(/C=C/C(=O)N4CCN(Cc5ccc(CC(C)Oc6ccc(C)cc6)cc5)CC4)cc3Cl)nc2)cc1 (centres unmarked) [Example 534, (E)-3-[3-Chloro-5-methyl-4-({5-[(4-methylbenzyl)oxy]pyridin-2-yl}oxy)phenyl]-1-(4-{4-[2-(4-methylphenoxy)propyl]benzyl}piperazin-1-yl)prop-2-en-1-one hydrochloride] | < 10 nM | – | –
Cc1cc(/C=C/C(=O)N2CCN(Cc3ccc(CCOc4ccc(Cl)cc4)c(F)c3)CC2)cc(C)c1Oc1ccc(OCc2ccc(C#N)cc2)cn1.Cl [Example 614, 4-{[(6-{4-[(E)-3-(4-{4-[2-(4-Chlorophenoxy)ethyl]-3-fluorobenzyl}piperazin-1-yl)-3-oxoprop-1-en-1-yl]-2,6-dimethylphenoxy}pyridin-3-yl)oxy]methyl}benzonitrile hydrochloride] | < 10 nM | 240.5 to 243.5 °C | –
Cc1cc(/C=C/C(=O)N2CCN(Cc3ccc(CCOc4ccc(C(F)(F)F)cc4)cc3F)CC2)cc(C)c1Oc1ccc(OCc2ccc(C#N)cc2)cn1 [Example 616, 4-({[6-(4-{(E)-3-[4-(2-Fluoro-4-{2-[4-(trifluoromethyl)phenoxy]ethyl}benzyl)piperazin-1-yl]-3-oxoprop-1-en-1-yl}-2,6-dimethylphenoxy)pyridin-3-yl]oxy}methyl)benzonitrile hydrochloride] | < 10 nM | – | –
Cc1cc(/C=C/C(=O)N2CCN(Cc3ccc(CCCOc4ccc(F)cc4)cc3)CC2)cc(Cl)c1Oc1ccc(OCc2ccc(C#N)cc2)cn1.Cl [Example 618, 4-{[(6-{2-Chloro-4-[(E)-3-(4-{4-[3-(4-fluorophenoxy)propyl]benzyl}piperazin-1-yl)-3-oxoprop-1-en-1-yl]-6-methylphenoxy}pyridin-3-yl)oxy]methyl}benzonitrile hydrochloride] | < 10 nM | 166.2 to 166.7 °C | –
Cc1cc(/C=C/C(=O)N2CCN(Cc3ccc(COc4ccc(C(C)C)cc4)cc3)CC2)cc(C)c1Oc1ccc(OCc2cscn2)cn1 [Example 648, (E)-3-(3,5-Dimethyl-4-{[5-(1,3-thiazol-4-ylmethoxy)pyridin-2-yl]oxy}phenyl)-1-[4-(4-{[4-(propan-2-yl)phenoxy]methyl}benzyl)piperazin-1-yl]prop-2-en-1-one hydrochloride] | < 10 nM | – | –
Cc1cc(/C=C/C(=O)N2CCN(Cc3ccc(/C=C/COc4ccc(Br)cn4)cc3)CC2)cc(Cl)c1Oc1ccc(OCc2ccc(C#N)cc2)cn1.Cl [Example 657, 4-({[6-(4-{(1E)-3-[4-(4-{(1E)-3-[(5-Bromopyridin-2-yl)oxy]prop-1-en-1-yl}benzyl)piperazin-1-yl]-3-oxoprop-1-en-1-yl}-2-chloro-6-methylphenoxy)pyridin-3-yl]oxy}methyl)benzonitrile hydrochloride] | – | 145 to 145.8 °C | IC50 [2]: < 10 nM; IC50 [3]: < 10 nM; IC50 [4]: < 10 nM; IC50 [5]: < 10 nM; IC50 [6]: < 10 nM
COc1ccc(NCCc2ccc(CN3CCN(C(=O)/C=C/c4ccc(Oc5ccc(OCc6ccc(C#N)cc6)cn5)c(Cl)c4)CC3)cc2)cc1.Cl.Cl [Example 669, 4-({[6-(2-Chloro-4-{(E)-3-[4-(4-{2-[(4-methoxyphenyl)amino]ethyl}benzyl)piperazin-1-yl]-3-oxoprop-1-en-1-yl}phenoxy)pyridin-3-yl]oxy}methyl)benzonitrile dihydrochloride] | – | 219.5 to 222.3 °C | IC50 [2]: < 10 nM; IC50 [3]: < 10 nM; IC50 [4]: < 10 nM; IC50 [5]: < 10 nM; IC50 [6]: < 10 nM
COc1ccc(COc2ccc(Oc3c(C)cc(/C=C/C(=O)N4CCN(Cc5ccc(CC(C)Oc6ccc(F)cc6)cc5)CC4)cc3C)nc2)cc1 (centres unmarked) [Example 725, (E)-1-(4-{4-[2-(4-Fluorophenoxy)propyl]benzyl}piperazin-1-yl)-3-[4-({5-[(4-methoxybenzyl)-oxy]pyridin-2-yl}oxy)-3,5-dimethylphenyl]prop-2-en-1-one hydrobromide] | < 10 nM | – | –
